Assay results: patent US20260133203A1, “DETECTION OF FUMARATE-DERIVED MODIFICATION IN A TEST SAMPLE” (UNIVERSITY OF SOUTH CAROLINA, priority 2017, published 2026)
Where a name gives a salt, the structure may show the parent alone.

Test system: primary rat neurons
Test: LC-MS/MS identification of succinated proteins in primary rat neurons
Assay type: cell-based
Details: DMF-treated primary rat neurons, modified by DMF or MMF
Protocol: Primary neurons from newborn rat brain cortices were isolated and cultured using an adaptation of methods described previously. Briefly, postnatal day 1 rats were sacrificed by decapitation, the brains were aseptically dissected, and cortices were separated from the rest of the brain in ice-cold Hibernate®-A medium (Life Technologies) containing 2% (v/v) B-27 supplement (Life Technologies) and 0.5 mM glutamine (InvitrogenTM). The tissue was minced in fragments of about 1 mm3 with a scalpel and subjected to digestion with 2 mg/ml papain (Worthington) in the supplemented Hibernate®-A medium for 20 minutes at 30° C. in a shaker incubator set at 100 rpm. […] After a centrifugation at 500 g for 5 min at room temperature, cells were resuspended in NeurobasalTM-A medium containing 0.5 mM glutamine, 2% B-27 supplement, and 5 ng/ml bFGF (InvitrogenTM); counted and plated on 24-well plates pretreated with 0.01% poly-L-lysine (Sigma-AldrichTM) at a density of 200,000 cells/well. […] The protein content in the different samples was determined by the Lowry assay. […] After gel extraction, the peptides were re-suspended in 1% acetic acid and analyzed on a DionexTM […] system (Thermo ScientificTM, Rockford, IL) coupled to an Orbitrap Velos ProTM mass spectrometer (Thermo ScientificTM, Rockford, IL). […]

`COC(=O)/C=C/C(=O)OC` [DMF, dimethyl fumarate] was tested, and the “number of succinated proteins confirmed” value was 4.
